Measurements published in US7785828B1 (priority 2003, dated 2010).
Where two headings read alike, the source gives them in different places.

Experiments:
Type in all cases: cell-based
[1] = test system: Fusarium graminearum
[2] = test system: Septoria tritici
[3] = test system: Mycosphaerella fijiensis
[4] = test system: Fusarium graminearum
[5] = Table 2B (Dm-AMP1 based libraries), improvement compared to reference defensin protein (Rs-AFP2 for Table 2B [sic])
[6] = Table 2C (mixed diversity library), improvement compared to reference defensin protein DmAMP

Substance	Antifungal activity, Septoria tritici (improvement compared to DmAMP1) [2]	Antifungal activity, Mycosphaerella fijiensis (improvement compared to DmAMP1) [3]	Activity (1): antifungal activity of the NP against Fusarium graminearium [4, 5]	other results
NLCERASKTWSGNCGNTKHCDTQCKNWEGAKHGACHKRSGKWMCFCYFNC (Defensin like) [L3-144]	+ (key: + indicating 1- to 5-fold improvement compared to DmAMP1; ++ indicating >5- to 10-fold improvement; +++ indicating >10-fold improvement)	+ (key: + indicating 1- to 5-fold improvement compared to DmAMP1; ++ indicating >5- to 10-fold improvement; +++ indicating >10-fold improvement)		Antifungal activity, Fusarium graminearum (improvement compared to DmAMP1) [1]: ++ (key: + indicating 1- to 5-fold improvement compared to DmAMP1; ++ indicating >5- to 10-fold improvement; +++ indicating >10-fold improvement)
NLCERASKTWSGNCGNTKHCDTQCRNWEGAAHGACHKRNGKWKCFCYFNC (Defensin like) [L6-12]	+ (key: + indicating 1- to 5-fold improvement compared to DmAMP1; ++ indicating >5- to 10-fold improvement; +++ indicating >10-fold improvement)	+ (key: + indicating 1- to 5-fold improvement compared to DmAMP1; ++ indicating >5- to 10-fold improvement; +++ indicating >10-fold improvement)		Antifungal activity, Fusarium graminearum (improvement compared to DmAMP1) [1]: +++ (key: + indicating 1- to 5-fold improvement compared to DmAMP1; ++ indicating >5- to 10-fold improvement; +++ indicating >10-fold improvement)
NLCERASKTWSGNCGNTKHCDTQCRNWEGAKHGACHVRSGKHKCFCYFNC (Defensin like) [L9-27]	++ (key: + indicating 1- to 5-fold improvement compared to DmAMP1; ++ indicating >5- to 10-fold improvement; +++ indicating >10-fold improvement)	++ (key: + indicating 1- to 5-fold improvement compared to DmAMP1; ++ indicating >5- to 10-fold improvement; +++ indicating >10-fold improvement)		Antifungal activity, Fusarium graminearum (improvement compared to DmAMP1) [1]: ++ (key: + indicating 1- to 5-fold improvement compared to DmAMP1; ++ indicating >5- to 10-fold improvement; +++ indicating >10-fold improvement)
NLCERASKTWSGNCGNTKHCDTQCRSWEGAAHGACHKRSGKWKCFCYFNC (Defensin like) [L9-41]	+ (key: + indicating 1- to 5-fold improvement compared to DmAMP1; ++ indicating >5- to 10-fold improvement; +++ indicating >10-fold improvement)	+ (key: + indicating 1- to 5-fold improvement compared to DmAMP1; ++ indicating >5- to 10-fold improvement; +++ indicating >10-fold improvement)		Antifungal activity, Fusarium graminearum (improvement compared to DmAMP1) [1]: ++ (key: + indicating 1- to 5-fold improvement compared to DmAMP1; ++ indicating >5- to 10-fold improvement; +++ indicating >10-fold improvement)
DGVKLCEKASQTWSGHCGNTKHCDNQCKNWEGAKHGACHKRNGKWKCFCYFNC [L7-434] (Defensin like)	+ (key: + indicating 1- to 5-fold improvement compared to DmAMP1; ++ indicating >5- to 10-fold improvement; +++ indicating >10-fold improvement)	+ (key: + indicating 1- to 5-fold improvement compared to DmAMP1; ++ indicating >5- to 10-fold improvement; +++ indicating >10-fold improvement)		Antifungal activity, Fusarium graminearum (improvement compared to DmAMP1) [1]: +++ (key: + indicating 1- to 5-fold improvement compared to DmAMP1; ++ indicating >5- to 10-fold improvement; +++ indicating >10-fold improvement)
NLCERASKTWSGNCGNTKHCDTQCKSWEGAAHGACHVRNGKHKCFCYFNC (Defensin like) [L6-27]	+++ (key: + indicating 1- to 5-fold improvement compared to DmAMP1; ++ indicating >5- to 10-fold improvement; +++ indicating >10-fold improvement)	+ (key: + indicating 1- to 5-fold improvement compared to DmAMP1; ++ indicating >5- to 10-fold improvement; +++ indicating >10-fold improvement)		Antifungal activity, Fusarium graminearum (improvement compared to DmAMP1) [1]: +++ (key: + indicating 1- to 5-fold improvement compared to DmAMP1; ++ indicating >5- to 10-fold improvement; +++ indicating >10-fold improvement)
NLCERASKTWSGNCGNTKHCDNQCRNWEGAKHGACHKRSGKWKCFCYFNC (Defensin like) [L9-30]	+ (key: + indicating 1- to 5-fold improvement compared to DmAMP1; ++ indicating >5- to 10-fold improvement; +++ indicating >10-fold improvement)	+ (key: + indicating 1- to 5-fold improvement compared to DmAMP1; ++ indicating >5- to 10-fold improvement; +++ indicating >10-fold improvement)		Antifungal activity, Fusarium graminearum (improvement compared to DmAMP1) [1]: ++ (key: + indicating 1- to 5-fold improvement compared to DmAMP1; ++ indicating >5- to 10-fold improvement; +++ indicating >10-fold improvement)
DGVKLCEKASQTWSGNCGNTKHCDTQCRNWEGAKHGACHKRNGKWKCFCYFNC (Defensin like) [L7-174]	++ (key: + indicating 1- to 5-fold improvement compared to DmAMP1; ++ indicating >5- to 10-fold improvement; +++ indicating >10-fold improvement)	+ (key: + indicating 1- to 5-fold improvement compared to DmAMP1; ++ indicating >5- to 10-fold improvement; +++ indicating >10-fold improvement)		Antifungal activity, Fusarium graminearum (improvement compared to DmAMP1) [1]: +++ (key: + indicating 1- to 5-fold improvement compared to DmAMP1; ++ indicating >5- to 10-fold improvement; +++ indicating >10-fold improvement)
NLCERASKTWTGNCGNTKHCDTQCRNWEGARHGACHVRNGKWKCFCYFNC (Defensin like) [L10-71]			++ (++ indicates a >5- to 10-fold improvement)	
NLCERASKTWTGNCGNTKHCDNQCKNWEGAKHGACHVRSGKHKCFCYFNC (Defensin like) [L6-23]			++ (++ indicates a >5- to 10-fold improvement)	
DGVKLCERASQTWSGHCGNTKHCDKQCKNWEKAAHGACHVRSGKWKCFCYFNC (Defensin like) [L7-14]				Activity (1): antifungal activity of the NP against Fusarium graminearium [4, 6]: ++ (++ indicates a >5- to 10-fold improvement)
NLCERASKTWTGNCGNTKHCDNQCKNWEGAAHGACHKRSGKWKCFCYFNC (Defensin like) [L10-80]			++ (++ indicates a >5- to 10-fold improvement)	
NLCERASKTWTGNCGNTKHCDTQCKIWEGAKHGACHKRSGKWKCFCYFNC (Defensin like) [L3-77]			++ (++ indicates a >5- to 10-fold improvement)	
NLCEKASKTWTGNCGNTKHCDNQCRSWEGAKHGACMKRSGKWKCFCYFNC [L10-76]			++ (++ indicates a >5- to 10-fold improvement)	
DGVKLCERASKTWSGHCGNTKHCDNQCRSWEGAKHGACHVRSGKHKCFCYFNC (Defensin like) [L7-213]				Activity (1): antifungal activity of the NP against Fusarium graminearium [4, 6]: ++ (++ indicates a >5- to 10-fold improvement)
NLCERASKTWTGNCGNTKHCDNQCKNWEGAKHGACHKRSGKWKCFCYFNC (Defensin like) [L10-25]			+ (+ indicates a 1- to 5-fold improvement in activity compared to a reference defensin protein)	
NLCERASKTWAGNCGNTKHCDNQCRSWEGAKHGACHVRNGKWKCFCYFNC (Defensin like) [L10-33]			+ (+ indicates a 1- to 5-fold improvement in activity compared to a reference defensin protein)	
NLCERASKTWTGNCGNTKHCDTQCKNWESAKHGACHVRSGKHKCFCYFNC (Defensin like) [L3-28]			++ (++ indicates a >5- to 10-fold improvement)	
DGVKLCEKPSKTWSGHCGNTKHCDKQCKNWEKAKHGACHKRNGKWKCFCYFNC (Defensin like) [L7-113]				Activity (1): antifungal activity of the NP against Fusarium graminearium [4, 6]: + (+ indicates a 1- to 5-fold improvement in activity compared to a reference defensin protein)
NLCERASKTWTGNCGNTKHCDNQCRSWEGAKHGACHKRSGKWKCFCYFNC (Defensin like) [L10-77]			++ (++ indicates a >5- to 10-fold improvement)	
NLCERASKTWSGNCGNTKHCDNQCRNWEGAAHGACHVRNGKHKCFCYFNC (Defensin like) [L6-59]	+ (key: + indicating 1- to 5-fold improvement compared to DmAMP1; ++ indicating >5- to 10-fold improvement; +++ indicating >10-fold improvement)	+ (key: + indicating 1- to 5-fold improvement compared to DmAMP1; ++ indicating >5- to 10-fold improvement; +++ indicating >10-fold improvement)		
DGVKLCERPSQTWTGNCGNTKHCDKQCKSWEGAKHGACHKRNGKWKCFCYFNC (Defensin like) [L7-99]				Activity (1): antifungal activity of the NP against Fusarium graminearium [4, 6]: + (+ indicates a 1- to 5-fold improvement in activity compared to a reference defensin protein)
--QKLCERASKTWTGHCGNTKHCDKQCKNWEKAKHGACHVRNGKWKCFCYFNC (Defensin like) [L7-34]				Activity (1): antifungal activity of the NP against Fusarium graminearium [4, 6]: + (+ indicates a 1- to 5-fold improvement in activity compared to a reference defensin protein)
---NLCERASKTWSGHCGNTKHCDNQCRNWEGAKHGACHKRNGKWKCFCYFNC (Defensin like) [L7-11]				Activity (1): antifungal activity of the NP against Fusarium graminearium [4, 6]: ++ (++ indicates a >5- to 10-fold improvement)
NLCERASKTWTGNCGNTKHCDTQCRNWEGAKHGACHKRSGKWKCFCYFNC (Defensin like) [L6-33]			++ (++ indicates a >5- to 10-fold improvement)	
DGVKLCERASKTWTGNCGNTKHCDNQCKSWEGAKHGACHVRNGKHKCFCYFNC (Defensin like) [L7-76]				Activity (1): antifungal activity of the NP against Fusarium graminearium [4, 6]: ++ (++ indicates a >5- to 10-fold improvement)
NLCEKASKTWTGNCGNTKHCDNQCKNWESAAHGACHKRNGKWKCFCYFNC (Defensin like) [L3-79]			++ (++ indicates a >5- to 10-fold improvement)	
